Results as given in patent publication US9198846B2, “Basic amino acid derivative” (AJINOMOTO CO., INC., priority 2012, dated 2015).

Test: Gelling ability of basic amino acid derivatives (test tube tilting, visual appearance)
Assay type: physicochemical
Parameters: key to gel appearance: GT: transparent gel; GTL: translucent gel; GO: opaque gel
Settings: heated to 100° C., stood at 25° C. for 2 hr
Procedure: The gelling ability of various basic amino acid derivatives prepared in Production Examples 1-4, 7, 9 and 10 was confirmed. Test tube equipped with a cover was filled with water, saline, phosphate buffered saline (hereinafter indicated as PBS), and aqueous NaCl solution or aqueous KCl solution, and a basic amino acid derivative was added at various concentrations. The mixture was heated to 100° C. to achieve homogeneous dissolution, and stood at 25° C. for 2 hr. After allowing to cool, the test tube was tilted, and the absence of fluidity was judged as gellation, and the appearance was visually observed.
Abbreviations mean the following. • GT: transparent gel • GTL: translucent gel • GO: opaque gel

With `CCCCCCCCCCCC(=O)NCCCC[C@H](NC(=O)CC(CCCCCCCCCC)C(=O)[O-])C(=O)OCC.[Na+]` (stereo partly drawn) [Production Example 1, N^ε-lauroyl-N^α-(3-carboxytridecanoyl)-L-lysine ethyl ester sodium salt] the gel appearance (0.1M aqueous KCl solution) was “GTL”, the minimum gelling concentration (0.1M aqueous KCl solution) was 15 g/L and the gel appearance (0.1M aqueous NaCl solution) was “GTL”. For the same molecule, the minimum gelling concentration (0.1M aqueous NaCl solution) was 10 g/L, the gel appearance (saline) was “GTL” and the minimum gelling concentration (saline) was 20 g/L. The gel appearance (water) was “GTL” and the minimum gelling concentration (water) was 25 g/L.

In the case of `CCCCCCCCCCCC(=O)NCCCC[C@H](NC(=O)CC(CCCCCCCCCC)C(=O)[O-])C(=O)OCC.[K+]` (stereo partly drawn) [Production Example 2, N^ε-lauroyl-N^α-(3-carboxytridecanoyl)-L-lysine ethyl ester potassium salt], the gel appearance (0.1M aqueous KCl solution) is reported as “GTL”, the minimum gelling concentration (0.1M aqueous KCl solution) is reported as 10 g/L and the gel appearance (0.1M aqueous NaCl solution) is reported as “GTL”. The minimum gelling concentration (0.1M aqueous NaCl solution) was 10 g/L, the gel appearance (saline) was “GTL” and the minimum gelling concentration (saline) was 20 g/L. For the same molecule, the gel appearance (water) was “GTL” and the minimum gelling concentration (water) was 20 g/L.

In the case of `CCCCCCCCCCCC(=O)NCCCC[C@H](NC(=O)CC(CCCCCCCCCC)C(=O)[O-])C(=O)O.[Na+]` (stereo partly drawn) [Production Example 3, N^ε-lauroyl-N^α-(3-carboxytridecanoyl)-L-lysine monosodium salt], the gel appearance (0.1M aqueous KCl solution) is reported as “GTL”, the minimum gelling concentration (0.1M aqueous KCl solution) is reported as 20 g/L and the gel appearance (0.1M aqueous NaCl solution) is reported as “GTL”. The minimum gelling concentration (0.1M aqueous NaCl solution) was 20 g/L, the gel appearance (1.0M aqueous KCl solution) was “GO” and the minimum gelling concentration (1.0M aqueous KCl solution) was 20 g/L. For the same molecule, the gel appearance (PBS) was “GO”, the minimum gelling concentration (PBS) was 60 g/L and the gel appearance (saline) was “GTL”. For the same molecule, the minimum gelling concentration (saline) was 50 g/L, the gel appearance (water) was “GTL” and the minimum gelling concentration (water) was 50 g/L.

For `CCCCCCCCCCCC(=O)NCCCC[C@H](NC(=O)CC(CCCCCCCCCC)C(=O)[O-])C(=O)O.[K+]` (stereo partly drawn) [Production Example 4, N^ε-lauroyl-N^α-(3-carboxytridecanoyl)-L-lysine monopotassium salt], the gel appearance (0.1M aqueous KCl solution) was “GTL”, the minimum gelling concentration (0.1M aqueous KCl solution) was 40 g/L and the gel appearance (0.1M aqueous NaCl solution) was “GTL”. The minimum gelling concentration (0.1M aqueous NaCl solution) was 20 g/L, the gel appearance (1.0M aqueous KCl solution) was “GO” and the minimum gelling concentration (1.0M aqueous KCl solution) was 20 g/L. For the same molecule, the gel appearance (PBS) was “GO”, the minimum gelling concentration (PBS) was 60 g/L and the gel appearance (saline) was “GTL”. For the same molecule, the minimum gelling concentration (saline) was 50 g/L, the gel appearance (water) was “GTL” and the minimum gelling concentration (water) was 60 g/L.

For `CCCCCCCCCCCC(=O)NCCCC[C@H](NC(=O)CCCCCCC(=O)[O-])C(=O)O.[Na+]` [Production Example 7, N^ε-lauroyl-N^α-(7-carboxyheptanoyl)-L-lysine monosodium salt], the gel appearance (0.1M aqueous KCl solution) was “GT”, the minimum gelling concentration (0.1M aqueous KCl solution) was 30 g/L and the gel appearance (0.1M aqueous NaCl solution) was “GTL”. For the same molecule, the minimum gelling concentration (0.1M aqueous NaCl solution) was 30 g/L, the gel appearance (1.0M aqueous KCl solution) was “GT” and the minimum gelling concentration (1.0M aqueous KCl solution) was 4 g/L. The gel appearance (1.0M aqueous NaCl solution) was “GT”, the minimum gelling concentration (1.0M aqueous NaCl solution) was 4 g/L and the gel appearance (PBS) was “GT”. For the same molecule, the minimum gelling concentration (PBS) was 30 g/L, the gel appearance (saline) was “GT” and the minimum gelling concentration (saline) was 30 g/L.

In the case of `CCCCCCCCCCCC(=O)NCCCC[C@H](NC(=O)CCCCCCCCC(=O)[O-])C(=O)O.[Na+]` [Production Example 9, N^ε-lauroyl-N^α-(9-carboxynonanoyl)-L-lysine monosodium salt], the gel appearance (0.1M aqueous KCl solution) is reported as “GT”, the minimum gelling concentration (0.1M aqueous KCl solution) is reported as 4 g/L and the gel appearance (0.1M aqueous NaCl solution) is reported as “GT”. The minimum gelling concentration (0.1M aqueous NaCl solution) was 4 g/L, the gel appearance (1.0M aqueous KCl solution) was “GT” and the minimum gelling concentration (1.0M aqueous KCl solution) was 4 g/L. The gel appearance (1.0M aqueous NaCl solution) was “GT”, the minimum gelling concentration (1.0M aqueous NaCl solution) was 4 g/L and the gel appearance (PBS) was “GT”. The minimum gelling concentration (PBS) was 4 g/L, the gel appearance (saline) was “GT” and the minimum gelling concentration (saline) was 4 g/L. For the same molecule, the gel appearance (water) was “GTL” and the minimum gelling concentration (water) was 30 g/L.

With `CCCCCCCCCCCC(=O)NCCCC[C@H](NC(=O)CCCCCCCCC(=O)[O-])C(=O)O.[K+]` [Production Example 10, N^ε-lauroyl-N^α-(9-carboxynonanoyl)-L-lysine monopotassium salt] the gel appearance (0.1M aqueous KCl solution) was “GT”, the minimum gelling concentration (0.1M aqueous KCl solution) was 4 g/L and the gel appearance (0.1M aqueous NaCl solution) was “GT”. The minimum gelling concentration (0.1M aqueous NaCl solution) was 10 g/L, the gel appearance (1.0M aqueous KCl solution) was “GT” and the minimum gelling concentration (1.0M aqueous KCl solution) was 4 g/L. For the same molecule, the gel appearance (1.0M aqueous NaCl solution) was “GT”, the minimum gelling concentration (1.0M aqueous NaCl solution) was 4 g/L and the gel appearance (PBS) was “GT”. The minimum gelling concentration (PBS) was 4 g/L, the gel appearance (saline) was “GT” and the minimum gelling concentration (saline) was 4 g/L. The gel appearance (water) was “GTL” and the minimum gelling concentration (water) was 30 g/L.
